# Data reported in a melting point compilation (Tetko et al.; mined from patent text by program, amines drawn as free bases though some values may be those of a salt).
row,Structure (SMILES),melting point [°C]
1,Cc1cccc2c(C3=CCN(C[C@H](O)COc4cccc5[nH]ccc45)CC3)c[nH]c12,155 to 158
2,CNC(=S)Nc1ccc(Cl)nc1,164
3,O=C(O)CCC(=O)c1ccc(NC(=O)CCCl)cc1,181 to 182
4,C1CNCCNCCOCCNCCN1,80 to 81
5,CCCOc1ncc(C#C[Si](C)(C)C)cc1-c1nc2c(CC)nn(CCN3CCOCC3)c2c(=O)[nH]1,132 to 134
6,CN(C)C(=O)Nc1ccc2c(c1)C(c1ccccc1F)=NCC(=O)N2C,97
7,O=C(N1CCOCC1)N1CCN(Cc2ccc3c(c2)-c2[nH]nc(-c4ccsc4)c2C3)CC1,188 to 190
8,CC(C(=S)c1ccc(NC=O)nc1)S(C)=O (stereo not drawn),125 to 127
9,COc1ccc(Nc2nc(Cl)nc(NC3CCCCCC3)n2)cc1Cl,146
10,O=C(Nc1ccccc1)N(Cc1ccc(Br)cc1)C1CCCC1,130 to 132
11,CNc1nc(Cl)c(Cl)c(N2CCN(CC[C@H]3CC[C@H](NC(=O)OC(C)(C)C)CC3)CC2)n1,199 to 202
12,O=C(c1cccs1)C(Br)c1ccc(F)cc1 (stereo not drawn),182 to 189
13,CCSC(=O)c1nc(N)ccc1Oc1nc(OC)cc(OC)n1,115 to 118
14,CNC(=O)[C@H]1CN(c2cc(F)c3c(c2)CCC(=O)N3C)C(=O)O1,264 to 265
15,COC(=O)[C@H](CO)NC(=O)c1ncn2c1CN(C)C(=O)c1c(Cl)cccc1-2,178 to 180
16,O=C(Nc1ccc(F)cc1)c1ccccc1C(c1ccc(O)cc1)c1ccc(O)cc1,122 to 124
17,C=C(C)COCC(C)C1CC=C2C3=C(CCC21C)C1(C)CCC(O)C(C)(C)C1CC3 (stereo not drawn),113 to 115
18,COc1cc2ncc(OC3CCCCC3)nc2cc1OC1CCCCC1,75 to 78
19,CC(=O)OC1CSC(Oc2cncc(F)c2)C(OC(C)=O)C1OC(C)=O (stereo not drawn),143
20,CCN(CC)S(=O)(=O)c1nc2ccc([N+](=O)[O-])cc2n1CC,90 to 91

row,Structure (SMILES),melting point [°C]
1,Cn1nc(Sc2cc(C(F)(F)F)ccc2C#N)n(C)c1=O,113
2,CC1(C)CN(C2CC3(C)C(CCC4C3CCC3(C)C(C(=O)CO)CCC43)CC2O)CCO1 (stereo not drawn),184 to 186
3,NC(=O)OCc1cc2c(Oc3ccc(Cl)cc3)cncc2s1,113 to 115
4,Fc1ccc(Nc2ccnc(Cl)n2)cc1,172 to 174
5,CN(C)c1cc(CC#N)cc(Cc2nc3c(F)c(F)cc(F)c3s2)c1,99 to 100
6,N#Cc1c(Cl)cc(Cl)cc1[N+](=O)[O-],102 to 103
7,C[C@@H]1CCN(C(=O)C(C)(C)C)[C@@H](C(=O)O)C1,87 to 90
8,CN1CCC(n2ccc3ccccc32)CC1,58
9,CCCCCCCCCCCC(CCCCC(=O)N(c1ccccc1)c1ccccc1)OC (stereo not drawn),51 to 52
10,O=C(NCCCCC1CCSS1)NS(=O)(=O)NC(=O)NCCCCC1CCSS1 (stereo not drawn),153 to 156
11,CC(=O)NC12CC1CN(c1nc3c(cc1F)c(=O)c(C(=O)O)cn3C1CC1)C2 (stereo not drawn),275
12,CCOC(=O)C1=C2CC=CC=C2N(C(=O)OCC)CCC1,60
13,CN(C)c1nc(Cl)nc(NCC(F)(F)F)n1,181 to 184
14,Oc1ncnc2nc(C(F)(F)F)ccc12,268 to 269
15,CCCCNC(=O)[C@@H](C[C@H](O)[C@H](CC1CCCCC1)NC(=O)OC(C)(C)C)C(C)C,115 to 118
16,CCSc1ccc2c(c1)C(Cl)Cc1ccc(F)cc1S2 (stereo not drawn),99
17,O=[N+]([O-])c1cccc(OC2CCCCO2)c1O (stereo not drawn),72 to 73
18,C=Cc1ccc(C(=O)NC(C#N)n2cccn2)cc1 (stereo not drawn),159 to 161
19,CO/C=C(/C(=O)OC)c1ccccc1CSc1nc2ccccc2s1,77 to 78
20,CCCn1c(COCC)nc2c(N)nc3ccc(OCC(=O)N4CCOCC4)cc3c21,196 to 197

# Other lines, results leading:
row,melting point [°C],Structure (SMILES)
1,65,CCOCCOc1ccc(CCNC(=O)/C=C/c2cccs2)cc1S(=O)(=O)NC(=O)NC
2,109 to 111,CCc1n[nH]c(CC)c1CCCCCCOc1ccc(O)cc1Cl
3,147 to 148,CCOC(=O)C1=C(C)NC(CO)=C(C(=O)OCC)C1c1ccccc1C(F)(F)F (stereo not drawn)
4,99 to 122,O=C(Nc1ccc(F)c(CO)c1)c1ccccn1
5,176 to 179,CN(Cc1cc2c(=O)c(C(=O)NCc3ccc(Cl)cc3)cn(C)c2o1)CC(O)c1cc2ccccc2o1 (stereo not drawn)
6,64 to 65,CN1C(=O)c2cccnc2N(CC(=O)OC(C)(C)C)c2ccccc21
7,72 to 79,CN1C(=O)CC[C@]2(C)c3ccc(-c4ccc(C(F)(F)F)cc4F)cc3CC[C@@H]12
8,144 to 150,COc1cc(Nc2nccc(Nc3ccc(CC(=O)O)cc3)n2)cc(OC)c1OC
9,192,COc1ccc(C=C2c3ccccc3CCc3ccccc32)cc1NS(C)(=O)=O
10,149 to 150,Cn1c(=O)cc(CCO)c2ccccc21
11,173 to 174,N#CCn1nnc(NC(=O)C(c2ccccc2)c2ccccc2)n1
12,133 to 135,CCc1nc2c(C)cc(C)nc2n1Cc1ccc2c(c1)CCc1ccccc1N2Cc1ccccc1C#N
13,338 to 340,O=C1CCC(Cn2c(=O)[nH]c3ncc(-c4ccc(O)cc4)nc32)N1 (stereo not drawn)
14,101 to 103,CC(C)c1ncc(CN2C(=O)C3(COc4cc5c(cc43)OCO5)c3cccc(C(F)(F)F)c32)s1 (stereo not drawn)
15,174 to 176,Cc1ccccc1-c1ccc(C(=O)N2Cc3ccc(C(=O)NCCc4cccc(Cl)c4)n3Cc3ccccc32)cc1C
16,126,CC(C(=O)O)c1cccc(NC(=O)NCC(=O)N2[C@@H](c3ccccc3F)SC[C@H]2C(=O)OC(C)(C)C)c1 (stereo partly drawn)
17,247 to 248,O=C(O)c1csnc1-c1ccc(Cl)c(Cl)c1
18,62 to 64,Cc1cc(OCc2ccccc2)cc(C)c1CC(=O)OCc1ccccc1
19,159 to 160,COc1ccnc(C(=O)N[C@H]2COC(=O)[C@H](Cc3ccccc3)[C@@H](OCSC)[C@H](C)OC2=O)c1O
20,167 to 169,CC(=O)NC1=NN(c2ccc(Cl)cc2)C(C)C1 (stereo not drawn)

row,melting point [°C],Structure (SMILES)
1,103 to 104,COC(=O)CC[C@@H](NC(=O)[C@H](COCc1ccccc1)NC(=O)OC(C)(C)C)C(N)=O
2,112 to 115,CC1S/C(=N/N=C\c2ccc(-c3ncn(-c4ccc(OC(F)(F)F)cc4)n3)cc2)N(c2ccccc2C2CC2)C1=O (stereo not drawn)
3,120,CC(C)(C)OC(=O)c1[nH]c2cc(Cl)cc(Cl)c2c1C=C1CON(c2ccccc2)C1=O
4,175 to 182,COc1ccc(NC(=O)c2ccc(OC)c(NC(=S)Nc3cc(Cl)cc(Cl)c3)c2)cc1
5,112 to 113,CCOC(=O)Cn1c(-c2ccc(OC)c(OC)c2)cc(=Nc2c(C)cc(C)cc2C)n(C)c1=O
6,230 to 231,COc1ccc2[nH]c3cnc4c(c3c2c1)C(=O)CC(C)(C)C4
7,176 to 177,CN(Cc1cc(C(F)(F)F)cc(C(F)(F)F)c1)C(=O)c1nc(Cl)c2ccccc2c1-c1ccccc1
8,196 to 200,CCNC(=O)N1Cc2c(-c3ccc(F)cc3)ncn2-c2ccccc21
9,122 to 124,COC(=O)C1=Cc2cccc(C=O)c2OCC1
10,108,CCOc1ccc(C(=O)C=Cc2ccc(SC)cc2)cc1
11,196 to 197,Cc1c(NC(=O)CC(C)(C)C)cc2c(c1C)OC(C)(C)C2Nc1ccccc1OC(F)(F)F (stereo not drawn)
12,164 to 165,CC(C(=O)OC(C)(C)C)c1ccc(N2Cc3ccc(Br)cc3C2=O)cc1 (stereo not drawn)
13,158,CC(=O)/C=C1/C(=O)N(c2ccccc2)C1c1ccccc1 (stereo not drawn)
14,89,O=C(NO)C1(S(=O)(=O)c2ccc(OCc3ccccc3)cc2)CCN(Cc2ccccc2)CC1
15,267 to 268,CC(=O)N(C)Nc1ccc(CCn2cnc3cc(-c4ccc(Cl)cc4)sc3c2=O)cc1
16,47 to 49,CN1CCN(Cc2cccc(OCc3ccc4ccccc4n3)c2)CC1
17,273 to 275,S=C1N=c2ccc(OCCN3CCC(Cc4ccccc4)CC3)cc2=N1
18,65 to 70,O=C(NCCCN1C(=O)C2(COc3cc4c(cc32)CCO4)c2ccccc21)c1ccccc1OC(F)(F)F (stereo not drawn)
19,226,COc1cc(Cc2cnc(N)nc2N)cc(C=Cc2ccccc2)c1OC
20,99 to 101,O=P1(c2ccccc2)OCc2ccccc21 (stereo not drawn)

row,melting point [°C],Structure (SMILES)
1,143,O=C(c1ccccc1)C(c1ccc(Cl)cc1)c1c(Cl)cc(-n2ncc(=O)[nH]c2=O)cc1Cl (stereo not drawn)
2,209 to 212,O=Cc1ccc2c3c1ccc1cccc(c13)C2
3,62 to 64,O=C(c1ccccc1Cl)c1ccccc1I
4,191,O=C(NC(=O)c1ccccc1Cl)Nc1cc(C(F)(F)F)c(Br)cc1Br
5,279,CNN(NC)C(=O)Nc1cccc2c1C(=O)c1c-2n[nH]c1-c1cccs1
6,182 to 185,CC(=O)N1CCN(c2cc3nc(C(C)(C)C)sc3cc2N)CC1
7,217 to 219,Cc1nc2cnccc2n1-c1ccc(COc2ccccc2C(=O)O)cc1
8,92 to 94,CC(=Cc1ccc(C(C)(C)C)cc1)C(=O)NC(C)c1ccc(NS(C)(=O)=O)c(F)c1 (stereo not drawn)
9,204,Cn1nc(-c2ccc(Cl)cc2F)cc1O
10,182 to 183,CCOC(=O)c1nc2c(Cl)nc3cc(C(F)(F)F)ccc3n2c1C
11,219 to 221,COc1cc2occ(C(=O)Nc3cccnc3)c2cc1C(F)(F)F
12,115 to 116,COc1ccc(C=CC(=O)Nc2c(CCO)nc3c(C)cc(C)cc3c2-c2ccccc2Cl)cc1OC
13,99.8 to 101,CCOC(=O)c1ccc2c(c1)ncn2-c1cccc(COCc2ccccn2)c1
14,155 to 156,"CC(=O)NCC1CC(c2ccc(-n3ccc(C=O)c3)c(F)c2)=NO1 (single isomer, unassigned; (-))"
15,182,Cc1cc(Br)cc(C(=O)Nc2ccc(F)c(C)n2)n1
16,102,Cc1ccc(C(C)(C)C)c(Oc2ccc(O)cc2)c1
17,155,CCOC(=O)c1ccc(-c2ccc(OCCCN)c(-c3ccc4c(c3)C(C)(C)CCC4(C)C)c2)cc1
18,124 to 126,O=C1C2CCCC2=Nc2ccccc2N1Cc1cccc([N+](=O)[O-])c1 (stereo not drawn)
